Test results: patent US5665367A, “Skin care compositions containing naringenin and/or quercetin and a retinoid” (Chesebrough-Pond's USA Co., Division of Conopco, Inc., priority 1996, dated 1997)
Read-outs that look alike come from different tables or passages of the source.

What was measured:
[1] = test system: transglutaminase I (TG1) in human keratinocytes; test: Transglutaminase assay (ELISA based TGase I assay) normalized to DNA in keratinocytes, Examples 2-4; assay type: cell-based; details: for inhibition of keratinocyte differentiation compared with retinoic acid: summary of the studies
Experimental: (§1) Human keratinocytes, isolated from neonatal foreskin by trypsin treatment were grown in Dulbecco Modification Eagle (DME) Hams F12 (1:1) medium/10% fetal calf serum in the presence of irradiated 3T3 mouse fibroblasts for establishing dividing keratinocyte colonies. Cells were grown under the above condition until their second passage and kept frozen for future use. Frozen second passage keratinocytes were thawed and plated into the above medium and grown for five days before they were switched to a serum-free MCDB 153-based medium keratinocyte growth medium (KGM) from Clonetics Corporation, San Diego, Calif., containing 0.15 mM Ca, or keratinocyte serum-free media (KSFM) from GIBCO containing 0.09 mM Ca). On day 7, when the cells were 80-90% confluent, they were trypsinized and plated in the serum-free medium for the various experiments.
(§2) During the process of terminal differentiation in the epidermis, a 15 nm thick layer of protein, known as the cornified envelope (CE) is formed on the inner surface of the cell periphery. The CE is composed of numerous distinct proteins which have been cross-linked together by the formation of N^ε -(γ-glutamyl) lysine isodipeptide bonds catalyzed by the action of at least two different transglutaminases (TGases) expressed in the epidermis. TGase 1 is expressed in abundance in the differentiated layers of the epidermis, especially the granular layer, but is absent in the undifferentiated basal epidermis. Thus TGase I is a useful marker of epidermal keratinocyte differentiation with high TGase I levels indicating a more differentiated state. An ELISA based TGase I assay, using a TGase I antibody, was used to assess the state of differentiation of the cultured keratinocytes in the examples that follow.
For Examples 2-4, the following procedure was used:
Keratinocytes (cultured as described above) were plated in 96 well plates at a density of 3,000 cells per well in 200 μl of cell culture media. After incubation for four days, the media was changed to media containing test compounds (six replicates per test). The cells were cultured for a further 72 hours after which time the media was aspirated and the plates stored at -70° C. After the plates were removed from the freezer, the cells were further freezed fractured by freezing and thawing and then washed 3x with PBS. The cells were incubated for one hour at room temperature (R/T) with TBS/5% BSA buffer. Cells were then incubated with 100 μl of monoclonal anti-human transglutaminase (IgG) mouse antibody (primary antibody) obtained from Biomedical Technologies Inc. diluted 1:2000 in TBS/1% BSA buffer for two hours at 37° C., and then rinsed six times with wash buffer (TBS/1% BSA/0.05% Tween-20). Cells were next incubated with 100 μl of Fab fragment, peroxidase conjugated anti-mouse IgG antibody (secondary antibody) from Amersham diluted 1:4,000 in wash buffer for two hours at 37° C. and then rinsed three times with wash buffer and three times with PBS. Cells were incubated with substrate solution (4mg o-phenylene diamine and 3.3 μl 30% H2 O2 in 10mL 0.1M citrate buffer, pH 5.0) for five minutes at R/T and in darkness (under aluminum foil). The reaction was stopped by the addition of 50 μl N H2 SO4. The absorbance of samples was read at 492 nm in the plate reader. Out of the six replicates, four were treated with both antibodies, two were treated only with the secondary antibody (i.e., to determine the background binding of the enzyme conjugated antibody). Transglutaminase I levels were determined by subtracted background from the readings from each treatment and determining the mean s.d. for the replicates exposed to both antibodies.
(§3) The level of TGase-1 detected after treatment of the cells could be influenced by cell number, i.e., the greater the number of cells the greater the level of TGase-1 detected. The level of TGase-1 was normalized to DNA content of the cells in the same well thus eliminating variation due to differences in cell number. […]

[2] = test system: transglutaminase (TGase I) in human keratinocytes; test: Transglutaminase assay (ELISA based TGase I assay) normalized to DNA in keratinocytes, Example 1; assay type: cell-based; details: for decrease in transglutaminase level, dose dependence: 2.5×10^-9 to 2.5×10^-7 M; for activity at 0.25 µM / activity at 0.025 µM / activity at 0.0025 µM: Homo sapiens, Keratinocyte, read-out: mean TGase/DNA (% control); for activity at 0.25 µM / activity at 0.025 µM / activity at 0.0025 µM / mean TGase/DNA × 10^-4 ± s.d: 72 hours, Table 1, n = 3
Experimental: as §1, §2
For Example 1, the following procedure was used:
Keratinocytes (cultured as described above) were plated in 96 well plates at a density of 3,000 cells per well in 200 μl media. After incubation for four days the media was changed to media containing test compounds (six replicates per test). The cells were cultured for a further 72 hours after which time the media was aspirated and the plates stored at -70° C. Plates were removed from the freezer, and the cells washed with PBS. 100 μl sterile water was added and the cells were freeze fractured by freezing at -70° C. then thawing. The cells were incubated for one hour at room temperature (R/T) with PBS/3% BSA (wash buffer, bovine serum albumin), then rinsed with a fresh aliquot of wash buffer. Cells were incubated with 50 μl of primary antibodies monoclonal anti-human transglutaminase mouse antibody (IgG) obtained from Biomedical Industries diluted 1:2,000 in wash buffer for one hour, 37° C. then rinsed two times with wash buffer. Cells were then incubated with 50 μl of secondary antibody (Fab fragment, peroxidase conjugated anti-mouse IgG obtaining from Amersham) diluted 1:4,000 in wash buffer for one hour at 37° C., then rinsed two times with wash buffer. Cells were incubated with substrate solution (4 mg o-phenylene diamine and 3.3 μl 30% H2 O2 in 10 ml 0.1M citrate buffer pH 5.0) for five minutes, R/T, in darkness (under aluminum foil). The reaction was stopped by the addition of 50 μl N H2 SO4. The absorbance of samples was read at 492 nm in the plate reader. Out of the six replicates, four were treated with both antibodies, two were treated only with the secondary antibody (i.e., to determine background binding of enzyme conjugated Ab). TGase levels were determined by subtracting background from the readings from each treatment and determining mean ±s.d. for the replicates exposed to both Ab.
as §3

[3] = Example 4: 2.5×10^-7 M retinoic acid, 2.5×10^-7 M retinol, 10^-6 M quercetin alone
[4] = 2.5 × 10^-7 M, 72 hour treatment, Table 4 (Example 4), n = 3
[5] = Example 2: 2.5×10^-7 M retinoic acid, 2.5×10^-9 M retinol, 10^-7 M naringenin alone
[6] = Homo sapiens, Keratinocyte, 72 h, 2.5 × 10^-7 M, 72 hour treatment, Table 4 (Example 4), n = 3, read-out: mean TGase/DNA (% control)
[7] = Example 3: 2.5×10^-7 M retinoic acid, 2.5×10^-8 M retinyl palmitate, 10^-8 M naringenin alone

repression of keratinocyte TG1 level (in words) [1, 7] | SMILES | repression of keratinocyte TG1 level (in words) [1, 3] | mean TGase/DNA × 10^-5 ± s.d [1, 4] | repression of keratinocyte TG1 level (in words) [1, 5] | activity at 0.25 µM [1, 6] | inhibition of keratinocyte differentiation compared with retinoic acid [1] | decrease in transglutaminase level, dose dependence [2] | activity at 0.25 µM ([2]; 2.5 × 10^-7 M) | activity at 0.025 µM ([2]; 2.5 × 10^-8 M) | activity at 0.0025 µM ([2]; 2.5 × 10^-9 M) | further results
 | O=c1c(O)c(-c2ccc(O)c(O)c2)oc2cc(O)cc(O)c12 [Quercetin, quercetin] | only a small inhibitory effect |  |  |  |  |  |  |  |  | mean TGase/DNA × 10^-5 ± s.d ([1]; 10^-6 M quercetin, 72 hour treatment, Table 4 (Example 4), n = 3): 59.04 ± 3.38 × 10^-5; activity at 1 µM ([1]; Homo sapiens, Keratinocyte, 72 h, 10^-6 M quercetin, 72 hour treatment, Table 4 (Example 4), n = 3, read-out: mean TGase/DNA (% control)): 85%
 | CC1=C(/C=C/C(C)=C/C=C/C(C)=C/CO)C(C)(C)CCC1 [Retinol, retinol] | ineffective | 61.93 ± 5.18 × 10^-5 | ineffective | 90% | significantly less effective than retinoic acid | dose dependent | 47% | 77% | > 100% | mean TGase/DNA × 10^-5 ± s.d ([1]; 2.5 × 10^-9 M retinol, 72 hour treatment, Table 2 (Example 2), n = 3): 48.31 ± 5.31 × 10^-5; mean TGase/DNA (% control) ([1]; 2.5 × 10^-9 M retinol, 72 hour treatment, Table 2 (Example 2), n = 3, 0.0025 µM, 4320 min): 91%; activity at 0.0025 µM ([1]; Homo sapiens, Keratinocyte, 72 h, 2.5 × 10^-9 M retinol, 72 hour treatment, Table 2 (Example 2), n = 3, read-out: mean TGase/DNA (% control)): 92%
ineffective | CCCCCCCCCCCCCCCC(=O)OC/C=C(C)/C=C/C=C(C)/C=C/C1=C(C)CCCC1(C)C [Retinyl palmitate, retinyl palmitate] |  |  |  |  | significantly less effective than retinoic acid |  |  |  |  | mean TGase/DNA × 10^-5 ± s.d ([1]; 2.5 × 10^-8 M retinyl palmitate, 72 hour treatment, Table 3 (Example 3), n = 3): 47.32 ± 4.22 × 10^-5; activity at 0.025 µM ([1]; Homo sapiens, Keratinocyte, 72 h, 2.5 × 10^-8 M retinyl palmitate, 72 hour treatment, Table 3 (Example 3), n = 3, read-out: mean TGase/DNA (% control)): 93%
small inhibitory effect | O=C1C[C@@H](c2ccc(O)cc2)Oc2cc(O)cc(O)c21 [Naringenin, naringenin] |  |  | no inhibitory effect |  |  |  |  |  |  | mean TGase/DNA × 10^-5 ± s.d ([1]; 10^-7 M naringenin, 72 hour treatment, Table 2 (Example 2), n = 3): 49.84 ± 2.76 × 10^-5; mean TGase/DNA × 10^-5 ± s.d ([1]; 10^-8 M naringenin, 72 hour treatment, Table 3 (Example 3), n = 3): 45.01 ± 1.90 × 10^-5; activity at 0.1 µM ([1]; Homo sapiens, Keratinocyte, 72 h, 10^-7 M naringenin, 72 hour treatment, Table 2 (Example 2), n = 3, read-out: mean TGase/DNA (% control)): 94%; activity at 0.01 µM ([1]; Homo sapiens, Keratinocyte, 72 h, 10^-8 M naringenin, 72 hour treatment, Table 3 (Example 3), n = 3, read-out: mean TGase/DNA (% control)): 89%

SMILES | repression of keratinocyte TG1 level (in words) [1, 7] | repression of keratinocyte TG1 level (in words) [1, 3] | mean TGase/DNA × 10^-5 ± s.d [1, 4] | repression of keratinocyte TG1 level (in words) [1, 5] | activity at 0.25 µM [1, 6] | inhibition of keratinocyte differentiation compared with retinoic acid [1] | decrease in transglutaminase level, dose dependence [2] | activity at 0.25 µM ([2]; 2.5 × 10^-7 M) | activity at 0.025 µM ([2]; 2.5 × 10^-8 M) | activity at 0.0025 µM ([2]; 2.5 × 10^-9 M) | further results
CC1=C(/C=C/C(C)=C/C=C/C(C)=C/C(=O)O)C(C)(C)CCC1 [Retinoic acid, retinoic acid] | very effective | effective | 35.91 ± 3.01 × 10^-5 | very effective | 52% |  | in a dose dependant manner decreased transglutaminase I levels | 7% | 55% | 77% | mean TGase/DNA × 10^-5 ± s.d ([1]; 2.5 × 10^-7 M RA, 72 hour treatment, Table 2 (Example 2), n = 3): 22.47 ± 2.31 × 10^-5; mean TGase/DNA × 10^-5 ± s.d ([1]; 2.5 × 10^-7 M RA, 72 hour treatment, Table 3 (Example 3), n = 3): 16.31 ± 2.58 × 10^-5; activity at 0.25 µM ([1]; Homo sapiens, Keratinocyte, 72 h, 2.5 × 10^-7 M RA, 72 hour treatment, Table 2 (Example 2), n = 3, read-out: mean TGase/DNA (% control)): 42%; activity at 0.25 µM ([1]; Homo sapiens, Keratinocyte, 72 h, 2.5 × 10^-7 M RA, 72 hour treatment, Table 3 (Example 3), n = 3, read-out: mean TGase/DNA (% control)): 32%; mean TGase/DNA × 10^-4 ± s.d ([2]; 2.5 × 10^-7 M): 0.16 ± 0.11 × 10^-4; mean TGase/DNA × 10^-4 ± s.d ([2]; 2.5 × 10^-8 M): 1.34 ± 0.40 × 10^-4; mean TGase/DNA × 10^-4 ± s.d ([2]; 2.5 × 10^-9 M): 1.87 ± 0.49 × 10^-4; decrease in transglutaminase level, dose dependence ([2]; listed as retinoic acid): dose dependent; effect on keratinocyte differentiation ([2]; all concentrations tested, versus ethanol control, Example 1): decreased keratinocyte differentiation; extent of decrease versus corresponding retinol treatments ([2]; all concentrations tested, Example 1): significantly greater extent
